From ChEMBL document CHEMBL6120978, “Anticancer activity of salinomycin quaternary phosphonium salts” (Eur J Med Chem, 2025)
pIC50: −log10 of the molar value. Converted amounts (≈) assume the structure as drawn. The source made the active and inactive calls. The calls are words filed in the database; no cut-off is given here.

Columns and labels:
[1] = Cytotoxicity against human HaCaT cells incubated for 72 hrs by MTT assay; type: toxicity, cell-based
[2] = tested on: Staphylococcus epidermidis; assay: Antimicrobial activity against Staphylococcus epidermidis ATCC 12228 incubated for 18 hrs by twofold microdilution method; type: functional
SW480 = assay: Cytotoxicity against human SW480 cells incubated for 72 hrs by MTT assay; type: functional, cell-based; settings: SW480, 72 h
[3] = Selectivity index, ratio of IC50 for cytotoxicity against chinese hamster V79 cells to IC50 for cytotoxicity against human SW620 cells; type: toxicity, cell-based; settings: V79 cells versus SW620 cells, read-out: Ratio IC50
[4] = Selectivity index, ratio of IC50 for cytotoxicity against chinese hamster V79 cells to IC50 for cytotoxicity against human MDA-MB-231 cells; type: toxicity, cell-based; settings: V79 cells versus MDA-MB-231 cells, read-out: Ratio IC50
[5] = Selectivity index, ratio of IC50 for cytotoxicity against chinese hamster V79 cells to IC50 for cytotoxicity against human A549 cells; type: toxicity, cell-based; settings: V79 cells versus A549 cells, read-out: Ratio IC50
Staphylococcus aureus [6] = assay: Antimicrobial activity against Staphylococcus aureus NCTC 4163 incubated for 18 hrs by twofold microdilution method; type: functional
[7] = Selectivity index, ratio of IC50 for cytotoxicity against human HaCaT cells to IC50 for cytotoxicity against human PC-3 cells; type: toxicity, cell-based; settings: HaCaT cells versus PC-3 cells, read-out: Ratio IC50
MDA-MB-231 [8] = assay: Cytotoxicity against human MDA-MB-231 cells incubated for 72 hrs by MTT assay; type: functional, cell-based; settings: MDA-MB-231, 72 h
A549 [9] = assay: Cytotoxicity against human A549 cells incubated for 72 hrs by MTT assay; type: functional, cell-based; settings: A549, 72 h
[10] = tested on: Staphylococcus epidermidis; assay: Antimicrobial activity against Staphylococcus epidermidis ATCC 35984 incubated for 18 hrs by twofold microdilution method; type: functional
[11] = Cytotoxicity against chinese hamster V79 cells incubated for 72 hrs by MTT assay; type: toxicity, cell-based, Cricetulus griseus
[12] = Selectivity index, ratio of IC50 for cytotoxicity against human HaCaT cells to IC50 for cytotoxicity against human A549 cells; type: toxicity, cell-based; settings: HaCaT cells versus A549 cells, read-out: Ratio IC50
PC-3 = assay: Cytotoxicity against human PC-3 cells incubated for 72 hrs by MTT assay; type: functional, cell-based; settings: PC-3, 72 h
Staphylococcus aureus [13] = assay: Antimicrobial activity against Staphylococcus aureus ATCC 6538 incubated for 18 hrs by twofold microdilution method; type: functional
[14] = Selectivity index, ratio of IC50 for cytotoxicity against human HaCaT cells to IC50 for cytotoxicity against human SW620 cells; type: toxicity, cell-based; settings: HaCaT cells versus SW620 cells, read-out: Ratio IC50
[15] = Selectivity index, ratio of IC50 for cytotoxicity against human HaCaT cells to IC50 for cytotoxicity against human MDA-MB-231 cells; type: toxicity, cell-based; settings: HaCaT cells versus MDA-MB-231 cells, read-out: Ratio IC50
[16] = Selectivity index, ratio of IC50 for cytotoxicity against human HaCaT cells to IC50 for cytotoxicity against human SW480 cells; type: toxicity, cell-based; settings: HaCaT cells versus SW480 cells, read-out: Ratio IC50
Staphylococcus aureus [17] = assay: Antimicrobial activity against Staphylococcus aureus ATCC 25923 incubated for 18 hrs by twofold microdilution method; type: functional
Staphylococcus aureus [18] = assay: Antimicrobial activity against Staphylococcus aureus ATCC 29213 incubated for 18 hrs by twofold microdilution method; type: functional
SW-620 = assay: Cytotoxicity against human SW620 cells incubated for 72 hrs by MTT assay; type: functional, cell-based; settings: SW-620, 72 h
Escherichia coli = assay: Antimicrobial activity against Escherichia coli ATCC 25922 incubated for 18 hrs by twofold microdilution method; type: functional
[19] = Selectivity index, ratio of IC50 for cytotoxicity against chinese hamster V79 cells to IC50 for cytotoxicity against human PC-3 cells; type: toxicity, cell-based; settings: V79 cells versus PC-3 cells, read-out: Ratio IC50
[20] = Selectivity index, ratio of IC50 for cytotoxicity against chinese hamster V79 cells to IC50 for cytotoxicity against human SW480 cells; type: toxicity, cell-based; settings: V79 cells versus SW480 cells, read-out: Ratio IC50
Pseudomonas aeruginosa = assay: Antimicrobial activity against Pseudomonas aeruginosa ATCC 15442 incubated for 18 hrs by twofold microdilution method; type: functional
Mitochondrial membrane [21] = assay: Induction of mitochondrial membrane potential loss in human A549 cells assessed as red fluorescence at IC50 incubated for 48 hrs MitoTrackerRed CMXRos staining based flow cytometry analysis (reference value: 91.1 %); type: cell membranes
A549 [22] = assay: Effect on mitochondrial function in human A549 cells assessed as change in mean fluorescence intensity at IC50 incubated for 48 hrs by MitoTracker Red CMXRos staining based flow cytometry analysis; type: functional, cell-based
A549 [23] = assay: Induction of ROS generation of human A549 cells at IC50 incubated for 6 hrs by CellROX Green staining based spectrofluorometer analysis; type: functional, cell-based
A549 [24] = assay: Induction of apoptosis in human A549 cells assessed as late apoptotic cells at IC50 incubated for 72 hrs by Annexin V-FITC staining based flow cytometry analysis (reference value: 1.86 %); type: functional
MDA-MB-231 [25] = assay: Induction of ROS generation of human MDA-MB-231 cells at IC50 incubated for 6 hrs by CellROX Green staining based spectrofluorometer analysis; type: functional, cell-based
A549 [26] = assay: Effect on mitochondrial mass in human A549 cells assessed as increase in mean fluorescence intensity at IC50 incubated for 48 hrs by MitoTracker Green FM staining based flow cytometry analysis; type: functional, cell-based
MDA-MB-231 [27] = assay: Effect on mitochondrial mass in human MDA-MB-231 cells assessed as increase in mean fluorescence intensity at IC50 incubated for 48 hrs by MitoTracker Green FM staining based flow cytometry analysis; type: functional, cell-based
MDA-MB-231 [28] = assay: Induction of apoptosis in human MDA-MB-231 cells assessed as necrotic cells at IC50 incubated for 72 hrs by Annexin V-FITC staining based flow cytometry analysis (reference value: 1.17 %); type: functional
MDA-MB-231 [29] = assay: Induction of apoptosis in human MDA-MB-231 cells assessed as viable cells at IC50 incubated for 72 hrs by Annexin V-FITC staining based flow cytometry analysis (reference value: 91.53 %); type: functional
Mitochondrial membrane [30] = assay: Induction of mitochondrial membrane potential loss in human A549 cells assessed as green fluorescence at IC50 incubated for 48 hrs MitoTracker Green FM staining based flow cytometry analysis (reference value: 8.93 %); type: cell membranes
A549 [31] = assay: Induction of apoptosis in human A549 cells assessed as early apoptotic cells at IC50 incubated for 72 hrs by Annexin V-FITC staining based flow cytometry analysis (reference value: 1.68 %); type: functional
A549 [32] = assay: Induction of apoptosis in human A549 cells assessed as viable cells at IC50 incubated for 72 hrs by Annexin V-FITC staining based flow cytometry analysis (reference value: 95.49 %); type: functional
Mitochondrial membrane [33] = assay: Induction of mitochondrial membrane potential loss in human MDA-MB-231 cells assessed as red fluorescence at IC50 incubated for 48 hrs MitoTrackerRed CMXRos staining based flow cytometry analysis (reference value: 91.1 %); type: cell membranes
A549 [34] = assay: Induction of apoptosis in human A549 cells assessed as necrotic cells at IC50 incubated for 72 hrs by Annexin V-FITC staining based flow cytometry analysis (reference value: 0.97 %); type: functional
MDA-MB-231 [35] = assay: Induction of apoptosis in human MDA-MB-231 cells assessed as early apoptotic cells at IC50 incubated for 72 hrs by Annexin V-FITC staining based flow cytometry analysis (reference value: 4.23 %); type: functional
MDA-MB-231 [36] = assay: Induction of apoptosis in human MDA-MB-231 cells assessed as late apoptotic cells at IC50 incubated for 72 hrs by Annexin V-FITC staining based flow cytometry analysis (reference value: 3.07 %); type: functional
Mitochondrial membrane [37] = assay: Induction of mitochondrial membrane potential loss in human MDA-MB-231 cells assessed as green fluorescence at IC50 incubated for 48 hrs MitoTracker Green FM staining based flow cytometry analysis (reference value: 8.86 %); type: cell membranes
A549 [38] = assay: Induction of cell cycle arrest in human A549 cells assessed as change in cell population at IC50 incubated for 24 hrs by propidium iodide staining based flow cytometry analysis; type: functional

In the case of `CC[C@@H](C(=O)[C@@H](C)[C@@H](O)[C@H](C)[C@@H]1O[C@@H]([C@@H](CC)C(=O)OCCCCCC[P+](c2ccc(OC)cc2)(c2ccc(OC)cc2)c2ccc(OC)cc2)CC[C@@H]1C)[C@H]1O[C@]2(C=C[C@@H](O)[C@]3(CC[C@@](C)([C@H]4CC[C@](O)(CC)[C@H](C)O4)O3)O2)[C@H](C)C[C@@H]1C.[Br-]`, the IC50 at 72 h [1] was 630 nM, the MIC [2] was 8 µg/mL and the pIC50 (SW480) was 6.28. For the same compound, the selectivity ratio [3] was 0.7, the selectivity ratio [4] was 1 and the selectivity ratio [5] was 0.7. For the same compound, the MIC (Staphylococcus aureus [6]) was 4 µg/mL, the selectivity ratio [7] was 0.5 and the pIC50 (MDA-MB-231 [8]) was 6.22. It also gave a pIC50 (A549 [9]) of 6.04, an MIC [10] of 8 µg/mL and an IC50 at 72 h [11] of 600 nM. It also gave a selectivity ratio [12] of 0.7, a pIC50 (PC-3) of 5.85 and an MIC (Staphylococcus aureus [13]) of 4 µg/mL. The selectivity ratio [14] was 0.8, the selectivity ratio [15] was 1.1 and the selectivity ratio [16] was 1.2. For the same compound, the MIC (Staphylococcus aureus [17]) was 8 µg/mL, the MIC (Staphylococcus aureus [18]) was 8 µg/mL and the pIC50 (SW-620) was 6.09. The MIC (Escherichia coli) was over 256 µg/mL, the selectivity ratio [19] was 0.4 and the selectivity ratio [20] was 1.1. For the same compound, the MIC (Pseudomonas aeruginosa) was over 256 µg/mL.
Work on `CC[C@@H](C(=O)[C@@H](C)[C@@H](O)[C@H](C)[C@@H]1O[C@@H]([C@@H](CC)C(=O)OCc2ccccc2)CC[C@@H]1C)[C@H]1O[C@]2(C=C[C@@H](O)[C@]3(CC[C@@](C)([C@H]4CC[C@](O)(CC)[C@H](C)O4)O3)O2)[C@H](C)C[C@@H]1C` yielded an IC50 at 72 h [1] of 8000 nM, an Activity (Mitochondrial membrane [21]) of 74.5% and an MIC [2] of 64 µg/mL (≈ 76.1 µM). For the same compound, the pIC50 (SW480) was 5.46, the selectivity ratio [3] was 0.8 and the Activity (A549 [22]) was “inactive”. It also gave a selectivity ratio [4] of 0.3, a selectivity ratio [5] of 0.8 and an MIC (Staphylococcus aureus [6]) of 64 µg/mL (≈ 76.1 µM). For the same compound, the Activity (A549 [23]) was “Active; Slight Insignificant Increase In Ros Level Was Observed”, the selectivity ratio [7] was 0.9 and the pIC50 (MDA-MB-231 [8]) was 4.78. The pIC50 (A549 [9]) was 5.12, the Activity (A549 [24]) was 2.76% and the MIC [10] was over 256 µg/mL. The IC50 at 72 h [11] was 5830 nM, the selectivity ratio [12] was 1.1 and the Activity (MDA-MB-231 [25]) was “Active; Slight Insignificant Increase In Ros Level Was Observed”. For the same compound, the Activity (A549 [26]) was “Active; Slight Increase In Mfi Is Observed”, the pIC50 (PC-3) was 5.06 and the MIC (Staphylococcus aureus [13]) was 32 µg/mL (≈ 38 µM). For the same compound, the selectivity ratio [14] was 1, the Activity (MDA-MB-231 [27]) was “Active; Slight Increase In Mfi Is Observed” and the Activity (MDA-MB-231 [28]) was 2.17%. It also gave a selectivity ratio [15] of 0.5, a selectivity ratio [16] of 2.3 and an MIC (Staphylococcus aureus [17]) of 64 µg/mL (≈ 76.1 µM). The Activity (MDA-MB-231 [29]) was 83.92%, the Activity (Mitochondrial membrane [30]) was 25.5% and the Activity (A549 [31]) was 10.57%. It also gave an MIC (Staphylococcus aureus [18]) of 64 µg/mL (≈ 76.1 µM), a pIC50 (SW-620) of 5.11 and an Activity (A549 [32]) of 84.65%. For the same compound, the Activity (Mitochondrial membrane [33]) was 79.7%, the Activity (A549 [34]) was 2.02% and the MIC (Escherichia coli) was over 256 µg/mL. For the same compound, the selectivity ratio [19] was 0.7, the Activity (MDA-MB-231 [35]) was 6.5% and the Activity (MDA-MB-231 [36]) was 7.41%. The Activity (Mitochondrial membrane [37]) was 19.6%, the selectivity ratio [20] was 1.7 and the MIC (Pseudomonas aeruginosa) was over 256 µg/mL. The Activity (A549 [38]) was “inactive”.
